Source: patent EP4702986A1, “POLYPEPTIDE AND USE THEREOF” (Biocells (Beijing) Biotech Co., Ltd., priority 2023, dated 2024)
Like-named read-outs stand apart in the source and are kept apart here. Numbered stars: 1 amine (or outer) side, 2 acyl side, 3 side chain; on linkers, the order of the positions; unused ones are H or OH. Side chains are listed from the residue outwards. Ends that are not written are not given here. Peptide text beside a SMILES is read from it. * marks the point of attachment. X1 = C[C@H](NC(=O)[C@@H]1CCCN1C(=O)[C@@H](N)CSC1CC(=O)N(CCC(=O)*)C1=O)C(=O)N[C@@H](CCCCN)C(=O)O; C18 diacid = O=C(O)CCCCCCCCCCCCCCCCC(=O)*; γGlu = O=C(O)[C@H](CCC(=O)[*:2])N[*:1]; Fumaroyl = O=C(O)/C=C/C(=O)*; Suc = O=C(CCC(=O)[*:2])[*:1]; Lauroyl = CCCCCCCCCCCC(=O)*; AEEA = NCCOCCOCC(=O)O

Target: T1, human ETA receptor (Homo sapiens, UniProt P25101)
T1 construct: expressed in transfected cells; host or cells: 293T-17 cells, transient transfection
T1 sequence (P25101 21-427): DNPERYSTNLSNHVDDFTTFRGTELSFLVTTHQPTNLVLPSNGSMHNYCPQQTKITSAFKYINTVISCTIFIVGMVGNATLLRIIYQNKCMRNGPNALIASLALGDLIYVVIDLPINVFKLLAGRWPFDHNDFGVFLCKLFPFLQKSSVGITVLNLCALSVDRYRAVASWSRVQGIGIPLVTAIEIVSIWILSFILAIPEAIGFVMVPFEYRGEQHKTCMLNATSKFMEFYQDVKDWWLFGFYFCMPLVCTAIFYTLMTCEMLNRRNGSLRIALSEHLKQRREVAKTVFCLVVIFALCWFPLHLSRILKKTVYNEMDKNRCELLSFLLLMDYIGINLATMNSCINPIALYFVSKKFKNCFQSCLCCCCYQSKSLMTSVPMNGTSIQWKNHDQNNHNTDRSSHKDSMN
Experiment: Selectivity of polypeptides on human ETA receptor (IP-One Gq kit, % of positive control ET1)
Format: cell-based
Procedure, shortened: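 293T-17 cells transiently transfected with human ETA receptor (48 h), 30,000 cells/well exposed to polypeptides for 1 h at 37°C; IP1 accumulation by HTRF (665/620 nm ratio). Activity given as % of ET1 at the same concentration after PBS-control subtraction.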

[1] = read-out: hETAR agonist activity, percentage of activity relative to ET1

`CCCCCCCCCCCC(=O)N[C@@H](CCC(=O)NCCOCCOCC(=O)NCCCC[C@H](NC(=O)[C@H](Cc1c[nH]cn1)NC(=O)[C@H](C)NC(=O)[C@H](Cc1ccccc1)NC(=O)[C@H](Cc1ccc(O)cc1)NC(=O)[C@@H](NC(=O)[C@H](C)NC(=O)[C@H](CCC(=O)O)NC(=O)[C@H](CCC(=O)O)NC(=O)[C@H](CC(=O)O)NC(=O)/C=C/C(=O)O)C(C)C)C(=O)N[C@@H](CC(=O)O)C(=O)N[C@H](C(=O)N[C@H](C(=O)N[C@@H](Cc1c[nH]c2ccccc12)C(=O)O)[C@@H](C)CC)C(C)C)C(=O)O` [BX229-Na] (Fumaroyl-DEEAVYFAHK([AEEA-γGlu-Lauroyl])DVIW-OH) gave an activation at 100 µM (@100µM, read-out: hETAR agonist activity, percentage of activity relative to ET1) of 0.68%.

Compound `CC[C@H](C)[C@H](NC(=O)[C@H](CC(=O)O)NC(=O)[C@H](CCCCNC(=O)COCCOCCNC(=O)COCCOCCNC(=O)CC[C@H](NC(=O)CCCCCCCCCCCCCCCCC(=O)O)C(=O)O)NC(=O)[C@H](Cc1c[nH]cn1)NC(=O)[C@H](C)NC(=O)[C@H](Cc1ccccc1)NC(=O)[C@H](Cc1ccc(O)cc1)NC(=O)[C@@H](NC(=O)[C@H](C)NC(=O)[C@H](CCC(=O)O)NC(=O)[C@H](CCC(=O)O)NC(=O)[C@H](CC(=O)O)NC(=O)/C=C/C(=O)O)C(C)C)C(=O)N[C@H](C(=O)N[C@@H](Cc1c[nH]c2ccccc12)C(=O)O)[C@@H](C)CC` [BX-34] (Fumaroyl-DEEAVYFAHK([AEEA-AEEA-γGlu-C18 diacid])DIIW-OH) has an activation at 0.01 µM [1] of -23.5% and an activation at 0.1 µM [1] of -11%.

In the case of `CC[C@H](C)[C@H](NC(=O)[C@H](CC(=O)O)NC(=O)[C@H](CCCCNC(=O)COCCOCCNC(=O)CCN1C(=O)CC(SC[C@H](N)C(=O)N2CCC[C@H]2C(=O)N[C@@H](C)C(=O)N[C@@H](CCCCN)C(=O)O)C1=O)NC(=O)[C@H](Cc1c[nH]cn1)NC(=O)[C@H](C)NC(=O)[C@H](Cc1ccccc1)NC(=O)[C@H](Cc1ccc(O)cc1)NC(=O)[C@@H](NC(=O)[C@H](C)NC(=O)[C@H](CCC(=O)O)NC(=O)[C@H](CCC(=O)O)NC(=O)[C@H](CC(=O)O)NC(=O)/C=C/C(=O)O)C(C)C)C(=O)N[C@H](C(=O)N[C@@H](Cc1c[nH]c2ccccc12)C(=O)O)[C@@H](C)CC` (stereo partly shown) [BX-95] (Fumaroyl-DEEAVYFAHK([AEEA-X1])DIIW-OH), the activation at 10 µM [1] is reported as -9.81% and the activation at 100 µM [1] is reported as -7.46%.

`CCCCCCCCCCCC(=O)N[C@@H](CCC(=O)NCCOCCOCC(=O)NCCCC[C@H](NC(=O)[C@H](Cc1c[nH]cn1)NC(=O)[C@H](C)NC(=O)[C@H](Cc1ccccc1)NC(=O)[C@H](Cc1ccc(O)cc1)NC(=O)[C@@H](NC(=O)[C@H](C)NC(=O)[C@H](CCC(=O)O)NC(=O)[C@H](CCC(=O)O)NC(=O)[C@H](CC(=O)O)NC(=O)/C=C/C(=O)O)C(C)C)C(=O)N[C@@H](CC(=O)O)C(=O)N[C@H](C(=O)N[C@H](C(=O)N[C@@H](Cc1c[nH]c2ccccc12)C(=O)O)[C@@H](C)CC)[C@@H](C)CC)C(=O)O` [BX-225] (Fumaroyl-DEEAVYFAHK([AEEA-γGlu-Lauroyl])DIIW-OH) showed an activation at 10 µM [1] of 0.52% and an activation at 100 µM [1] of 3.59%.

“Fum-DEEEVYFAHKDIIW (Fumaroyl-DEEEVYFAHKDIIW) [BX-52]” was tested, and the “hETAR agonist activity, percentage of activity relative to ET1” value (@10nM) was -2.49%@10nM and the “hETAR agonist activity, percentage of activity relative to ET1” value (@100nM) was -11.24%@100nM.

For Fum-DEEEVYFAHOrnDIIW [BX-59], the “hETAR agonist activity, percentage of activity relative to ET1” value was -7.67%@100µM and the “hETAR agonist activity, percentage of activity relative to ET1” value (@10µM) was -10.61%@10µM.

With “Suc-DE cyclo(CEEC)YFAHKDIIW (Suc-DECEECYFAHKDIIW; not fully specified (bridges); printed as Suc-DE cyclo(CEEC)YFAHKDIIW; also: cyclo(CEEC) in N-terminal extension, bond type not given here) [BX-57]” the “hETAR agonist activity, percentage of activity relative to ET1” value was -10.53%@100µM and the “hETAR agonist activity, percentage of activity relative to ET1” value (@10µM) was -29.04%@10µM.
